≈ marks a conversion by molar mass, not a printed value. Where “and” joins values, the source holds several entries; their conditions need not be identical. Equal entries are not always repeated.
Key:
[1] = Evaluation of rodent dosing apparatus with nebulized ITZ colloidal suspension, in vivo lung concentration; parameters: species or system outbred ICR mice; settings: individual mice, 5 min nebulization
Text: As used herein, the term “pre-clinical rodent dosing apparatus” refers to the apparatus reported by J. T. McConville, P. Sinswat, J. Tam, K. P. Johnston and R. O. Williams III, In vitro and in vivo validation of a high-concentration pre-clinical rodent dosing apparatus for inhalation, Proceedings of the American Association of Pharmaceutical Scientists, San Antonio, TX, October, 2006, relevant portions incorporated herein by reference. An animal dosing chamber was designed which consisted of hollow tubing (20×4.5 cm; nominal wall thickness of 0.4 cm) with four 1.75 cm adapter holes drilled at 7 cm intervals (2 holes along each side). The adapter holes were constructed to accept rodent restraint tubes from the Battelle® toxicology testing unit. A standard itraconazole (ITZ) colloidal suspension was nebulized into the apparatus for 5 minutes using a micro-pump nebulizer. Atomized droplets containing ITZ were driven into the chamber at a flow rate of 1 L/min. ITZ concentrations were measured in vitro at the 4 adapter ports, and in vivo from the lungs of 8 outbred-ICR mice in the appropriate mice restraining tubes at the adapter ports.
Example 11. […] ITZ concentrations were measured in vitro at the 4 adapter ports, and in vivo from the lungs of male outbred ICR mice in the appropriate mice restraining tubes at the adapter ports. […]

[2] = adult patients; cited from earlier work
[3] = BET specific surface area analysis; type: physicochemical
Procedure: As used herein, the term “BET Analysis” refers to a method for measuring the surface area of the exposed surface of a solid sample on the molecular scale. The BET (Brunauer, Emmet, and Teller) theory is typically used to determine the area of solids. Commonly, samples are prepared by heating and simultaneously evacuating or flowing gas over the sample to remove the liberated impurities. The prepared samples are then cooled with liquid nitrogen and analyzed by measuring the volume of gas (typically N2 or Kr) adsorbed at specific pressures. Krypton gas is often used when the measured surface is expected to be less than 2 m^2/g (typically pharmaceutical samples and natural organic materials). The skilled artisan will recognize that several types of instruments may be used for measuring surface area, which depends upon the extent of the surface or the gas required to achieve the best results. […]
BET Specific Surface Area Analysis. Specific surface area was measured using a Nova 2000 v. […] The data recorded were then analyzed according to BET theory using NOVA Enhanced Data Reduction Software v. […]
Example 3. […] Specific surface area was measured using a Nova 2000 v 6.11 instrument (Quantachrome Instruments, Boynton Beach, FL). […] The data recorded were then analyzed according to BET theory using NOVA Enhanced Data Reduction Software v. […]

[4] = Equilibrium solubility of TAC in modified simulated lung fluid with 0.02% DPPC; type: physicochemical; settings: modified simulated lung fluid (SLF) with 0.02% DPPC, 37 °C, fassgf or other biorelevant, thermodynamic from solid, modified simulated lung fluid 0.02% DPPC
[5] = Dissolution testing below equilibrium solubility (sink) in modified simulated lung fluid with 0.02% DPPC; type: physicochemical; settings: SLF 0.02% DPPC
Procedure: Dissolution Testing at Below Equilibrium Solubility. Dissolution testing at below equilibrium solubility was performed on the URF powder samples using a United States Pharmacopeia (USP) 27 Type 2 dissolution apparatus (VanKel VK6010 Dissolution Tester with a Vanderkamp VK650A heater/circulator, Varian, Inc. Palo Alto, CA). […] The dissolution media was maintained at 37.0±0.2° C. and stirred at a constant rate of 50 rpm. Samples (1 mL) were withdrawn at 10, 20, 30, 60 and 120 minute time points, filtered using a 0.45 μm GHP Acrodisc filter (VWR, Inc., West Chester, PA) and analyzed using a Shimadzu LC-10 liquid chromatograph (Shimadzu Corporation, Kyoto, Japan) equipped with an Alltech ODS-2, 5 μm C18 column (Alltech Associates, Inc., Deerfield, IL). The mobile phase consisted of a 70:30 (v/v) ACN: Water mixture, used at a flow rate of 1 mL/min. The maximum absorbance was measured at wavelength λmax=214 nm.
Example 5. […] Samples (1 mL) were withdrawn at 10, 20, 30, 60, and 120 minute time points, filtered using a 0.45 μm GHP Acrodisc filter (VWR, Inc. Westchester, PA), and analyzed using a Shimadzu LC-10 liquid chromatograph (Shimadzu Corporation, Kyoto, Japan) equipped with an Altech ODS-2, 5 μm C18 column (Altech Associates, Deerfield, IL). […] The maximum absorbance was measured at wavelength λ=214 nm.

Row | Compound | ITZ Conc. in Lung Tissue [1] | average oral bioavailability [2] | Specific Surface Area ([3]; Table 2) | Surface Area (BET) ([3]; URF study, Table 4) | solubility thermodynamic [4] | dissolution of TAC ([5]; at 1 hr, 37° C.) | dissolution of TAC ([5]; in 30 minutes, sink conditions)
1 | CCC(C)n1ncn(-c2ccc(N3CCN(c4ccc(OCC5COC(Cn6cncn6)(c6ccc(Cl)cc6Cl)O5)cc4)CC3)cc2)c1=O (stereo not shown) [ITZ, itraconazole] | 21.6 µg/g and 20.2 µg/g and 18.3 µg/g and 13.5 µg/g and 15.9 µg/g and 18.6 µg/g and 19.2 µg/g and 22.7 µg/g |  |  |  |  |  | 
2 | C=CC[C@@H]1/C=C(\C)C[C@H](C)C[C@H](OC)[C@H]2O[C@@](O)(C(=O)C(=O)N3CCCC[C@H]3C(=O)O[C@H](/C(C)=C/[C@@H]3CC[C@@H](O)[C@H](OC)C3)[C@H](C)[C@@H](O)CC1=O)[C@H](C)C[C@@H]2OC [unprocessed TAC, Tacrolimus] |  | approximately 25% | 0.533 m^2/g | 0.53 m^2/g | ~6.8 µg/mL (≈ 8.46 µM) | 30% | 30%
